According to patent publication US20050277600A1, “Compositions and methods of use of dimer digallates” (Mars, Incroporated, priority 2004, published 2005):

Assays:
[1] = system: rabbit aortic rings; experiment: Relaxation of norepinephrine pre-constricted rabbit aortic rings ex vivo
Procedure: Several compounds were investigated for their effect on nitric oxide (NO) production and vasorelaxation using serum-free human umbilical vein endothelial cell (HUVEC) culture system in vitro and rabbit aortic ring model ex vivo, respectively. NO production by endothelial cells and relaxation of pre-constricted aortic rings are two main markers for evaluating vascular effects of test compounds. Effect of different procyanidins on endothelium-dependent relaxation was tested in an ex vivo experiment performed as previously described by Karim et al., J. Nutrl Suppl., 130 (8S): […]-[…] (2000), the relevant portions of which are hereby incorporated herein by reference. The advantage of using this method is that it assesses functional vascular end points. […] In summary, rabbit aortic rings were obtained from male New Zealand White rabbits. Following isolation, the rings were mounted in oxygenated Kreb's buffer, and pre-constricted with norepinephrine (NE) (10^-6 M). […] A positive control acetylcholine (10^-9 to 10^-4 M) and a negative control L-NAME were included in the experiment. Use of L-NAME, which is a NO synthase (NOS) inhibitor, allows for differentiating between endothelium dependent and endothelium independent relaxation events. […] The relaxation response was measured as a function of the decrease in the tension (g) exerted by the aortic rings over time […]. Data obtained were expressed as a percent relaxation of the norepinephrine (NE) constricted rings. The same statistical approach as described above was used. Dose response curves were obtained by plotting the average percent relaxation (+/-SE) against the concentrations used.

[2] = system: HUVEC; experiment: HUVEC-mediated MTT reduction (toxic effects); conditions: for MTT reduction / cell-mediated MTT reduction: Experiment 2, chronic, 5 x 24 hours; for MTT reduction: 1 μM or 2 μM for EGC; for cell-mediated MTT reduction: 10 μM (20 μM for the Epicatechin gallates); for cell-mediated reduction of MTT: Experiment 2, single dose, 24 hours, 1 μM
Procedure: Cell counts and total protein were used to assess intra-assay variation. Potential toxic effects of tested compounds were also monitored (MTT reduction was measured).

[3] = system: human umbilical vein endothelial cell (HUVEC) NO production; experiment: HUVEC NO production (NOx in cell culture medium, chemiluminescence); assay type: cell-based; conditions: for HUVEC Cells NOx, 2 hr / HUVEC Cells NOx, 24 hr / HUVEC Cells NOx, 5 d: Table 2 summary
Procedure: Several compounds were investigated for their effect on nitric oxide (NO) production and vasorelaxation using serum-free human umbilical vein endothelial cell (HUVEC) culture system in vitro and rabbit aortic ring model ex vivo, respectively. NO production by endothelial cells and relaxation of pre-constricted aortic rings are two main markers for evaluating vascular effects of test compounds.
HUVECs obtained from a single donor were cultured in serum free, low protein (0.5 g/l), antibiotic-free cell culture medium supplemented with essential growth factors, nutrients and minerals. […] The cell culture medium was substituted with apo-transferrin, superoxide dismutase, and catalase to exclude secondary effects of test compounds involving their auto-oxidation mediated hydrogen peroxide formation.
NO production was evaluated by measuring the total amount of all major nitric oxide end products (NOx, including nitrate, nitrite, nitrosothiols) present in the cell culture medium. […] The amount of NO released from the culture medium was subsequently evaluated by measuring the chemiluminescence emitted during the stoichiometrical reaction between ozone and NO using a NO Analyzer (Sievers Instruments, Inc. Boulder, Colo.).
The data presented herein were obtained from three experiments and were expressed as the concentration of NO present (in μmol/l) (as NOx) in the cell culture medium+/−standard deviation (SD). The data were corrected for the NOx intrinsically present in the fully supplemented cell culture medium and normalized with respect to the volume of media from which the sample was drawn. Data were analyzed using Student's t-test with a 95% level of confidence. P values equal to or less than 0.05 were defined as statistically significant.
For the acute effect test, HUVECs were incubated with the test compounds for 2 hours at concentrations of 100 nM, 1 μM, and 10 μM at 37° C. and 5% CO2. […] (FIG. 1)
For the chronic effect test, HUVECs were incubated with 5 subsequent doses of test compounds, each for 24 hours. After each 24 hour treatment, culture medium was replaced.
For the acute effect test, HUVECs were incubated with a single dose of the test compounds for 24 hours at concentrations of 100 nM, 1 μM, and 10 μM at 37° C. and 5% CO2.

[4] = system: human umbilical vein endothelial cell (HUVEC) NO production; experiment: as above; assay type: cell-based; conditions: Experiment 1, 24 h after single dose, 1 mM (so in the source)
[5] = Experiment 1, chronic, 5 subsequent 24 hour doses
[6] = Experiment 1, 24 h after single dose, 10 μM
[7] = Experiment 1, acute, 2 hours incubation, 10 μM
[8] = Experiment 2, single dose, 24 hours, 1 μM
[9] = Experiment 2, single dose, 24 hours, 10 μM

## O=C(O[C@@H]1[C@@H](c2c(O)cc(O)c3c2O[C@H](c2ccc(O)c(O)c2)[C@H](OC(=O)c2cc(O)c(O)c(O)c2)C3)c2c(O)cc(O)cc2O[C@@H]1c1ccc(O)c(O)c1)c1cc(O)c(O)c(O)c1 [EC-(4β→8)-EC digallate, (−)-Epicatechin-(4β,8)-(−)-Epicatechin Digallate]
[1]; Experiment 1, 10^−4 M
  relaxation response, percent relaxation of NE constricted rings: 73.55+/−7.08%
[1]; Experiment 1, 10^−5 M
  relaxation response, percent relaxation of NE constricted rings: 44.6+/−16.6%
[1]; Experiment 3, 10 μM and 100 μM
  Max Relaxation: 74%
[2]; [5]
  decline in MTT reduction: 55%
[2]
  MTT reduction: decline in MTT reduction
  cell-mediated MTT reduction: significant decline of cell-mediated MTT reduction
  cell-mediated reduction of MTT: no effect on cell-mediated reduction of MTT
[3]; [6]
  NO production: increased NO production
[3]; [7]
  modulation of NO production: statically significant ability to modulate NO production
[3]; [5]
  NO production: attenuation of NO production
[3]; [8]
  NO production: statistically significant increases in NO production
[3]; [9]
  modulation of NO production: statistically significant ability to modulate NO production
[3]
  HUVEC Cells NOx, 2 hr: 10 uM, sign. NOx
  HUVEC Cells NOx, 24 hr: 1 and 10 uM, sign. NOx inc.
  HUVEC Cells NOx, 5 d: No significant NOx increase;
[4]
  NO production: increased NO production

## Oc1cc(O)c2c(c1)O[C@H](c1ccc(O)c(O)c1)[C@H](O)[C@H]2c1c(O)cc(O)c2c1O[C@H](c1ccc(O)c(O)c1)[C@@H](O)C2 [EC-(4β→8)-C, (−)-Epicatechin-(4β,8)-(+)-Catechin]
[1]; Experiment 1, 10^−4 M
  relaxation response, percent relaxation of NE constricted rings: 58.36+/−11.35%
[1]; Experiment 1, 10^−5 M
  relaxation response, percent relaxation of NE constricted rings: 42.7+/−11.81%
[2]
  cell-mediated reduction of MTT: no effect on cell-mediated reduction of MTT
[3]; [6]
  NO production: increased NO production
[3]; [7]
  modulation of NO production: statically significant ability to modulate NO production
[3]; Experiment 2, chronic, 5 subsequent 24 hour doses
  HUVEC NO production: increase in NO production which was significantly lower as compared to single dose treatment
[3]; [8]
  NO production: statistically significant increases in NO production
[3]; [9]
  modulation of NO production: statistically significant ability to modulate NO production
[3]
  HUVEC Cells NOx, 2 hr: 10 uM, sign. NOx
  HUVEC Cells NOx, 24 hr: 1 uM and 10 uM, sign. Incr. in
  HUVEC Cells NOx, 5 d: 10 uM, significant NOx
[3]; re-purified compound (first lot contaminated with A1 dimer)
  NO modulating effect after re-purification: no longer exhibited the NO modulating effect
[4]
  NO production: increased NO production

## O=C(O[C@H]1[C@H](c2c(O)cc(O)c3c2O[C@H](c2ccc(O)c(O)c2)[C@H](OC(=O)c2cc(O)c(O)c(O)c2)C3)c2c(O)cc(O)cc2O[C@@H]1c1ccc(O)c(O)c1)c1cc(O)c(O)c(O)c1 [C-(4α→8)-EC digallate, (+)-Catechin-(4α,8)-(−)-Epicatechin Digallate]
[1]; Experiment 2, 10^−4 M
  relaxation response, percent relaxation of NE constricted rings: 40.7+/−9.2%
[1]; Experiment 3, 100 μM
  Max Relaxation: 41%
[1]; Table 1 summary
  Aortic Ring Effective Conc,: 100 µM
[2]
  MTT reduction: decline in MTT reduction
  cell-mediated MTT reduction: significant decline of cell-mediated MTT reduction
[3]
  HUVEC Cells NOx, 24 hr: no effect
  HUVEC Cells NOx, 5 d: No significant NOx increase;
